Test results as given in publication PMC11796312, “Multifunctional, Fluorene‐Based Modulator of Cholinergic and GABAergic Neurotransmission as a Novel Drug Candidate for Palliative Treatment of Alzheimer's Disease” (Angewandte Chemie (International Ed. in English), 2024).

What was measured:
[1] = test system: Human neuroblastoma cells SH-SY5Y; assay: MTT cell viability assay, SH-SY5Y; assay type: cell-based; settings: Homo sapiens, 24 h, read-out: IC50 (MTT) ± SEM
Excerpt: (§1) Human neuroblastoma cells SH-SY5Y and mouse microglial cells SIM-A9 were used to evaluate cell viability, intracellular RONS, and malondialdehyde (MDA; CAS No. 542–78-9).
(§2) SH-SY5y cells were cultivated in Dulbecco's modified Eagle's medium (DMEM; Biosera, Nuaille, France) supplemented with 10% fetal bovine serum (Biosera) and 1% penicillin-streptomycin antibiotic solution (Sigma-Aldrich, St. Louis, MO, USA). The culture medium for SIM-A9 cells was further supplemented with donor horse serum (Biosera). The cells were incubated at 37 °C in a CO2 incubator (BINDER CO2 incubator CB 160, Tuttlingen, Germany) and routinely passaged by trypsinization at 75 –85% confluence.
(§3) Colorimetric Cell Viability Assay
(§4) The toxicological indices IC 50 used in the present study were measured utilizing 3-(4,5-dimethylthiazol-2-yl)-2,5-diphenyl-tetrazolium bromide (MTT) reduction assay after (1 picture or pasted object on this page, not shown here)
(§5) 24 h incubation with tested compounds. […]
(§6) incubation, the cultivation medium containing serially diluted substances was aspirated and replaced with a fresh medium containing MTT at a concentration of 0.5 mg/mL and subsequently incubated at 37 °C for 1 h. […] Cell viability was assessed spectrophotometrically by the amount of formazan produced. Absorbance was measured at 570 nm with 650 nm reference wavelength on Spark (Tecan Group Ltd, Switzerland). […]

mGAT4 = biological target: T1, mGAT4 (Mus musculus, UniProt P31650); assay: [3H]GABA uptake assay, mGAT4; assay type: cell-based
T1 sequence (P31650 1-627): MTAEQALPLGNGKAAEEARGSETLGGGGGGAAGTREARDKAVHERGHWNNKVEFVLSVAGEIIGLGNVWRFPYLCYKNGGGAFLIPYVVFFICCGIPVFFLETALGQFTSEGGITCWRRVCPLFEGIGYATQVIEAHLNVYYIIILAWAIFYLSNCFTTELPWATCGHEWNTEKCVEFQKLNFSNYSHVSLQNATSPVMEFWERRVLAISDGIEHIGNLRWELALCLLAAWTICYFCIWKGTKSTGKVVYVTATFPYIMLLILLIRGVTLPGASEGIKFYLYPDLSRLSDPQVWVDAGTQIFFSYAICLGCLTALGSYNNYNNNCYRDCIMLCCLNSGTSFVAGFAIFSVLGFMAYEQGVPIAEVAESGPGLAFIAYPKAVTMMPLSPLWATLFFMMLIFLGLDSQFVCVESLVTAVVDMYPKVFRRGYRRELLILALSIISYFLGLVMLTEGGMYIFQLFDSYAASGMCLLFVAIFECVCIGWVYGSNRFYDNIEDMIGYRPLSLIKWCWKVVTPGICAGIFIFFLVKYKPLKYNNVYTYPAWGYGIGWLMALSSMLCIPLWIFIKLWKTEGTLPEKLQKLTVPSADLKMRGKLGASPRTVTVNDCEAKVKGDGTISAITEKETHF

[2] = biological target: T2, human norepinephrine transporter (Homo sapiens, UniProt P23975); assay: Norepinephrine Transporter Competition Binding Assay; settings: NET Ki
T2 construct: expressed in transfected cells
Protocol: Norepinephrine Transporter Competition Binding Assay
Preparation of solutions of test and reference compounds
First, 10 mM stock solutions of tested compounds were prepared in DMSO. Serial dilutions of compounds were prepared in a 96-well microplate in an assay buffer using the automated pipetting system epMotion 5070. Each compound was tested in 8 concentrations ranging from 10^-3 to 10^-10 M (final concentration).
Radioligand binding was performed using membranes from the MDCK cell line stably transfected with the human norepinephrine transporter. All assays were carried out in duplicates. Volumes of 50 µl working solution of the tested compounds, 50 µl [ 3H]- Nisoxetine (spec. act. 80.2 Ci/mmol, final concentration 4 nM), and 150 µl diluted membranes (5 µg protein per well) prepared in assay buffer (50 mM Tris -HCl, pH 7.4; 120 mM NaCl; 5 mM KCl) were transferred to polypropylene 96-well microplate using 96-wells pipetting station Rainin Liquidator. Desipramine (10 μM) was used to define nonspecific binding. The microplate was covered with sealing tape, mixed, and incubated for 60 minutes at 4 °C. The reaction was terminated by rapid filtration through GF/B filter mate presoaked with 0.5% polyethyleneimine for 30 minutes. Five rapid washes with 300 µl 50 mM Tris buffer (4 °C, pH 7.4) were performed using a 96 -well FilterMate harvester. The filter mates were dried at 37 °C in the forced air fan incubator, and then, solid scintillator MeltiLex B/HS was melted on filter mates at 90 °C for 4 minutes. Radioactivity was counted in the MicroBeta2 scintillation counter (PerkinElmer). Data were fitted to a one -site curve-fitting equation with Prism 8.0 (GraphPad Software), and Ki values were estimated from the […]
Result of Norepinephrine Transporter Competition Binding Assay
Table S9. Results of binding to norepinephrine transporter (NET) of tested compounds COMPOUND Ki [nM] pKi Ki [nM] pKi Ki [nM] pKi

[3] = test system: mouse microglial cells SIM-A9; assay: MTT cell viability assay, SIM-A9; assay type: cell-based; settings: Mus musculus, SIM-A9, 24 h; read-out: IC50 (MTT) ± SEM
Excerpt: as §1, §2, §3, §4, §5, §6

T2 sequence (P23975 whole entry): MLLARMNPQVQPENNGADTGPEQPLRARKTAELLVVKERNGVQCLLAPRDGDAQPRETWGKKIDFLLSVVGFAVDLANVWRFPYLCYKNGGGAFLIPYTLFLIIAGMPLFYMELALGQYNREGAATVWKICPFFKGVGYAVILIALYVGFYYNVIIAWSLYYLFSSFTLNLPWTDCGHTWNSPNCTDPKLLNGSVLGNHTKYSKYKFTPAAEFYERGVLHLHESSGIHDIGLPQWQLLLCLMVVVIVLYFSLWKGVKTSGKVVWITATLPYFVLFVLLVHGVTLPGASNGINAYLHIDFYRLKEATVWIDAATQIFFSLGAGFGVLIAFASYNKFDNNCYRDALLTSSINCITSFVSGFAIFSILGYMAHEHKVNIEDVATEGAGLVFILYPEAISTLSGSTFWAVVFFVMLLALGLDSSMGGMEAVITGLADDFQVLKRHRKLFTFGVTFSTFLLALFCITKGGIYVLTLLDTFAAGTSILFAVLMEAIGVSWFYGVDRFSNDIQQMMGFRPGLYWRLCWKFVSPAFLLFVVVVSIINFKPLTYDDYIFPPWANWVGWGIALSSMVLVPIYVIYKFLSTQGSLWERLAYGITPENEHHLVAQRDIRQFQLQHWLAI

## O[C@H](CNCC1CC1)[C@H](Cc1ccccc1)NC1c2ccccc2-c2ccccc21 [Compound 6]
[1]
  IC50: 3380 ± 40 nM
mGAT4
  IC50: 7760 ± 360 nM
[2]
  Ki: 837 nM
[2]; third Ki column (likely the mean)
  Ki: 774 nM
[2]; [3H]-Nisoxetine
  Ki: 714 nM
[3]
  IC50: 6460 ± 90 nM
